The format of data set [1] is physicochemical. As to the method: 30.0 mg of tamibarotene, 11.4 mg of L-malic acid and 43.5 mg of telmisartan (1:1:1 molar ratio) were stirred as an open slurry in 1 mL of acetone in a glass vial. After 16-24 hours of stirring mixture was further dried at room temperature until, a completely dried mixture is obtained. The resulted material was stored in a screw cap vial and characterized by PXRD and IR. PXRD comparison of binary tamibarotene-L-malic acid complex (TN-513) with tamibarotene-L-malic acid-telmisartan (TN-513-T) also confirmed the successful synthesis of a ternary complex. Synthesis of ternary TN-513-T was scaled up to 150 mg of tamibarotene and stability was tested on accelerated conditions (75% humidity at 40° C.) for 1 and three months.

Data set [2] has as its system lung cancer cells. The data set is described as follows: Sphere assay. It counts as cell-based. The text has this: All sphere assay studies methodology and materials are described in full details in international publication number WO 2019/160806 dated Aug. 22, 2019, but with substituting the binary molecular complex with the ternary molecular complex of the present invention.

The test system of data set [3] is SK-ES-1. Briefly: Monolayer Cell Culture Assay, IC50. Format: cell-based. The conditions noted are these: SK-ES-1, Sarcoma. An excerpt: (§1) All IC50 studies' methodology and materials are described in full details in international publication number WO 2019/160806 dated Aug. 22, 2019, but with substituting the binary molecular complex with the ternary molecular complex of the present invention.

For data set [4], the system named is PANC-1. Briefly: Monolayer Cell Culture Assay, IC50. The conditions noted are these: PANC-1, Pancreas. It counts as cell-based.
Text: as §1

Data set [5] relates to PC-3. Briefly: Monolayer Cell Culture Assay, IC50. The conditions noted are these: PC-3, Prostate. Format: cell-based.
Text: as §1

For data set [6], the system named is A549. The data set is described as follows: Monolayer Cell Culture Assay, IC50. It counts as cell-based. The conditions noted are these: A549, Lung.
Text: as §1

The test system of data set [7] is SK-Mel-5. The data set is described as follows: Monolayer Cell Culture Assay, IC50. Format: cell-based. The conditions noted are these: SK-Mel-5, Skin.
Text: as §1

Data set [8] has as its system U-2 OS. The data set is described as follows: Monolayer Cell Culture Assay, IC50. The conditions noted are these: Sarcoma. It counts as cell-based.
Text: as §1

In data set [9] the test system is MC38. The data set is described as follows: Monolayer Cell Culture Assay, IC50. Format: cell-based. The conditions noted are these: Mus musculus, MC-38, MC38, Colon.
Text: as §1

Data set [10] concerns CT26. The data set is described as follows: Monolayer Cell Culture Assay, IC50. Format: cell-based. The conditions noted are these: Mus musculus, CT26, Colon.
Text: as §1

The test system of data set [11] is HT29. The data set is described as follows: Monolayer Cell Culture Assay, IC50. The conditions noted are these: Homo sapiens, HT-29, HT29, Colon. It counts as cell-based.
Text: as §1

For data set [12], the system named is HCT116. Briefly: Monolayer Cell Culture Assay, IC50. It counts as cell-based. The conditions noted are these: Homo sapiens, HCT-116, HCT116, Colon.
Text: as §1

The conditions of data set [13]: cited from earlier work.
Where [14] appears, read: average of two tests, read-out: IC50 Test AVG Avg.
[15] abbreviates: Homo sapiens, average of two tests, read-out: IC50 Test AVG Avg.
Setting [16] is: Homo sapiens, read-out: IC50 Test (II) Avg.
[17] abbreviates: Homo sapiens, read-out: IC50 Test(I) Avg.

SMILES strings stand for the structures. Like-named read-outs stand apart in the source and are kept apart here.

The text below walks through data of patent publication US20220185767A1, “NOVEL TERNARY MOLECULAR COMPLEX OF TAMIBAROTENE FOR CANCER STEM CELLS TREATMENT” (TRANSGENEX NANOBIOTECH, INC., priority 2019, published 2022).

Consider `CC1(C)CCC(C)(C)c2cc(NC(=O)c3ccc(C(=O)O)cc3)ccc21.CCCc1nc2c(C)cc(-c3nc4ccccc4n3C)cc2n1Cc1ccc(-c2ccccc2C(=O)O)cc1.O=C(O)C[C@H](O)C(=O)O` [TN513:TS, Tamibarotene:L-malic acid:telmisartan], for which the “stability on accelerated conditions (PXRD)” value in data set [1] is listed as “no change in PXRD data”. In addition, in data set [2] (FIG. 10), the “preventing sphere aggregation (sphere formation efficacy)” value is listed as “superior efficacy preventing sphere aggregation”. Also, the “total surface area of the cancer cell spheres” value in data set [2] (FIG. 11) is given as “dramatically reducing the total surface area”. For the same molecule, the IC50 (in general, the concentration needed to halve the response being measured) in data set [3] (setting [14]) was determined as 17.9 µM; in [3] (read-out: IC50 Test (II) Avg), 18.4 µM; in data set [3] (read-out: IC50 Test(I) Avg), 17.4 µM; in [4] (setting [14]), 32.5 µM; in data set [4] (read-out: IC50 Test (II) Avg), 40.2 µM; in data set [4] (read-out: IC50 Test(I) Avg), 24.8 µM. Besides, the IC50 in [5] (setting [14]) turned out to be 71.2 µM; in data set [5] (read-out: IC50 Test (II) Avg), 70.8 µM; in data set [5] (read-out: IC50 Test(I) Avg) it was 71.7 µM; in data set [6] (setting [14]), 16 µM; in [6] (read-out: IC50 Test (II) Avg), 19.9 µM; in data set [6] (read-out: IC50 Test(I) Avg), 12 µM. Further, the IC50 in data set [7] (setting [14]) was found to be 20.7 µM; in data set [7] (read-out: IC50 Test (II) Avg), 26.1 µM; in data set [7] (read-out: IC50 Test(I) Avg), 15.3 µM; in data set [8] (setting [14]), 12.9 µM; in data set [8] (read-out: IC50 Test (II) Avg) it was 14.6 µM; in [8] (read-out: IC50 Test(I) Avg) it was 11.2 µM.

In the case of `CC1(C)CCC(C)(C)c2cc(NC(=O)c3ccc(C(=O)O)cc3)ccc21.CCOc1nc2cccc(C(=O)O)c2n1Cc1ccc(-c2ccccc2-c2nn[nH]n2)cc1` [TN513:CS, Tamibarotene:L-malic acid:candesartan], the concentration for half-maximal inhibition (IC50) was 31.4 µM in [3] (setting [14]); 33.6 µM in data set [3] (read-out: IC50 Test (II) Avg); 29.2 µM in [3] (read-out: IC50 Test(I) Avg); 70.6 µM in [4] (setting [14]); 88 µM in data set [4] (read-out: IC50 Test (II) Avg); 53.3 µM in data set [4] (read-out: IC50 Test(I) Avg). Besides, the IC50 in data set [5] (setting [14]) is 106 µM; in data set [5] (read-out: IC50 Test (II) Avg), 111 µM; in data set [5] (read-out: IC50 Test(I) Avg) it was 102 µM; in data set [6] (setting [14]), 52.4 µM; in data set [6] (read-out: IC50 Test (II) Avg), 62.2 µM; in data set [6] (read-out: IC50 Test(I) Avg) it was 42.7 µM. For the same molecule, the IC50 in data set [7] (setting [14]) amounted to 46.1 µM; in data set [7] (read-out: IC50 Test (II) Avg), 42.6 µM; in data set [7] (read-out: IC50 Test(I) Avg), 49.5 µM; in data set [8] (setting [14]) it was 42.8 µM; in [8] (read-out: IC50 Test (II) Avg), 45.8 µM; in data set [8] (read-out: IC50 Test(I) Avg), 39.9 µM.

In the case of `CC1(C)CCC(C)(C)c2cc(NC(=O)c3ccc(C(=O)O)cc3)ccc21.CCCCc1nc(Cl)c(CO)n1Cc1ccc(-c2ccccc2-c2nn[nH]n2)cc1` [TN513:LS, Tamibarotene:L-malic acid:losartan], the IC50 in data set [3] (setting [14]) worked out at 106 µM; in data set [3] (read-out: IC50 Test (II) Avg) it was 122 µM; in [3] (read-out: IC50 Test(I) Avg), 90 µM; in [4] (setting [14]), 126 µM; in data set [4] (read-out: IC50 Test (II) Avg), 149 µM; in data set [4] (read-out: IC50 Test(I) Avg), 104 µM. Besides, the IC50 amounted to 332 µM in data set [5] (setting [14]); 343 µM in [5] (read-out: IC50 Test (II) Avg); 322 µM in data set [5] (read-out: IC50 Test(I) Avg); 110 µM in data set [6] (setting [14]); 126 µM in [6] (read-out: IC50 Test (II) Avg); 93.8 µM in data set [6] (read-out: IC50 Test(I) Avg). The IC50 in [7] (setting [14]) was 116 µM; in data set [7] (read-out: IC50 Test (II) Avg), 132 µM; in data set [7] (read-out: IC50 Test(I) Avg) it was 99.9 µM; in data set [8] (setting [14]), 64.8 µM; in [8] (read-out: IC50 Test (II) Avg), 69.6 µM; in data set [8] (read-out: IC50 Test(I) Avg) it was 59.9 µM.

With `CC1(C)CCC(C)(C)c2cc(NC(=O)c3ccc(C(=O)O)cc3)ccc21` [TAM, 4-[(5,5,8,8-tetramethyl-5,6,7,8-tetrahydronaphthalen-2-yl)carbamoyl]benzoic acid, reference compound], the IC50 in data set [9] (setting [14]) is 101 µM; in data set [9] (read-out: IC50 Test (I) Avg) it was 65.7 µM; in data set [9] (read-out: IC50 Test (II) Avg), 137 µM; in data set [10] (setting [14]), 87.3 µM; in data set [10] (read-out: IC50 Test (I) Avg), 61.9 µM; in [10] (read-out: IC50 Test (II) Avg) it was 94.8 µM. Moreover, the IC50 was above 100 µM in data set [3] (Homo sapiens, SK-ES1, average of two tests, read-out: IC50 Test AVG Avg); above 100 µM in [3] (Homo sapiens, SK-ES1, read-out: IC50 Test (II) Avg); above 100 µM in data set [3] (Homo sapiens, SK-ES1, read-out: IC50 Test(I) Avg); 100 µM in data set [11] (setting [14]); 88.9 µM in data set [11] (read-out: IC50 Test (I) Avg); 111 µM in data set [11] (read-out: IC50 Test (II) Avg). Besides, the IC50 in [12] (setting [14]) was 60.4 µM; in [12] (read-out: IC50 Test (I) Avg) it was 49.6 µM; in [12] (read-out: IC50 Test (II) Avg), 71.3 µM; in data set [4] (setting [15]), above 100 µM; in [4] (setting [16]), above 100 µM; in [4] (setting [17]), above 100 µM. Besides, the IC50 is above 100 µM in [5] (setting [15]); above 100 µM in data set [5] (setting [16]); above 100 µM in data set [5] (setting [17]); 60.3 µM in data set [6] (setting [15]); above 100 µM in data set [7] (setting [15]); above 100 µM in data set [7] (setting [16]). Further, the IC50 was above 100 µM in data set [7] (setting [17]); above 100 µM in [8] (Homo sapiens, U2OS, average of two tests, read-out: IC50 Test AVG Avg); above 100 µM in data set [8] (Homo sapiens, U2OS, read-out: IC50 Test (II) Avg); above 100 µM in data set [8] (Homo sapiens, U2OS, read-out: IC50 Test(I) Avg). In [13] (DMF, methanol, ethanol, DMSO, and other organic solvents), the “solubility in organic solvents” value is “soluble”. Besides, in [13] (acetonitrile, water, buffer solutions pH3~7 (CN 101200435 B)), the “solubility in acetonitrile, water, and various other buffer solutions” value is on record as “insoluble”.
